Measured values published in ChEMBL document CHEMBL1150477, “Development of angiotensin II antagonists with equipotent affinity for human AT1 and AT2 receptor subtypes” (Bioorg Med Chem Lett, 1994).
Positions count from the first letter of the chain named.

Assays:
[1] = target: T1, Angiotensin II receptor (AT-1) type-1 (Rattus norvegicus, UniProt P29089+P25095); experiment: […] inhibitory concentration against Angiotensin II receptor, type 1 of rat adrenal membrane
T1 sequence (P29089 whole entry): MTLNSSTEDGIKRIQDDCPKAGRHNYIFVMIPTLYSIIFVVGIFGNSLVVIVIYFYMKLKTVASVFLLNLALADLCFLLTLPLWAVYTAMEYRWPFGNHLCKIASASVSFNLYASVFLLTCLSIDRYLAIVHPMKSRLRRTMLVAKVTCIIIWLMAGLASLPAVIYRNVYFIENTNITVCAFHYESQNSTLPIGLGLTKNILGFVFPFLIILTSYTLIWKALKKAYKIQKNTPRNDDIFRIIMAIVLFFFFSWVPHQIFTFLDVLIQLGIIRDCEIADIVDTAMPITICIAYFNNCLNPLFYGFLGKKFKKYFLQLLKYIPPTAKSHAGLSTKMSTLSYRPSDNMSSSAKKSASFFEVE
T1 sequence (P25095 whole entry): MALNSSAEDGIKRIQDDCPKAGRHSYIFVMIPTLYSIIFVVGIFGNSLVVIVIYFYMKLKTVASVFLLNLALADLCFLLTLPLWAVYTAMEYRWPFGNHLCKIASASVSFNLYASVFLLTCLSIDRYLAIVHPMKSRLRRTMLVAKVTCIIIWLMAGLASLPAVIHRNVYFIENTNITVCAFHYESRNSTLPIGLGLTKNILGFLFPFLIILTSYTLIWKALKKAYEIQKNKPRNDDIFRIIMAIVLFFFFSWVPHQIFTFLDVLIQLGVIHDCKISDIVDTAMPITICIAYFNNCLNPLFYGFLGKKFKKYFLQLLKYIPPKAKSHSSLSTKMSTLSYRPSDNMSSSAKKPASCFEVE

[2] = target: T2, Type-2 angiotensin II receptor (Homo sapiens, UniProt P50052); experiment: […] inhibitory concentration against AT2 receptor of human adrenal membrane
T2 sequence (P50052 whole entry): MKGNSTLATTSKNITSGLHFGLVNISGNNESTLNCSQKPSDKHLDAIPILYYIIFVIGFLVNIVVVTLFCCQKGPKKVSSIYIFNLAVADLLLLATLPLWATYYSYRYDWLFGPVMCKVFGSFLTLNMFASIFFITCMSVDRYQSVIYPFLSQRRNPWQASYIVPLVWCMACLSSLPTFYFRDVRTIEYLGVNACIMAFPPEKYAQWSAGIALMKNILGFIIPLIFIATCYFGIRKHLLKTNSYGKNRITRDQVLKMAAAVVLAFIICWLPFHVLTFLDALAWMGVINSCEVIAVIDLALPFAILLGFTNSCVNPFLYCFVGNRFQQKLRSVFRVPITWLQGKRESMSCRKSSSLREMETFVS

[3] = tested on: Canis familiaris; experiment: In vivo inhibition of angiotensin II induced pressor response in dogs at a dose of 1.0 mg/Kg after 6 hr administered intravenously; type: functional; conditions: Canis lupus familiaris, iv
[4] = target: T3, Type-2 angiotensin II receptor (Rattus norvegicus, UniProt P35351); experiment: […] inhibitory concentration against Angiotensin II, type 2 of rat midbrain membrane
T3 sequence (P35351 whole entry): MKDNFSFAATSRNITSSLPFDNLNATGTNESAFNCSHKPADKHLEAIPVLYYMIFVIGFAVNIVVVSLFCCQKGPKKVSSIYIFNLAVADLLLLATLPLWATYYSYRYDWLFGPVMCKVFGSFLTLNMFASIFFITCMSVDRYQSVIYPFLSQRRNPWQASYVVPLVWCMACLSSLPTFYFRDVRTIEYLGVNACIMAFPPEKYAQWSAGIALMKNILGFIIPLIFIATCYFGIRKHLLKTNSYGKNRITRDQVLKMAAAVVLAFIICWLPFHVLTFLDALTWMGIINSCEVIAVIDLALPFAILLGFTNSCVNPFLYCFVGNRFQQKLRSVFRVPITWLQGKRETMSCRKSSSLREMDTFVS

[5] = target: T4, Type-1 angiotensin II receptor (Homo sapiens, UniProt P30556); experiment: […] inhibitory concentration against Angiotensin II receptor, type 1 of human adrenal membrane
T4 sequence (P30556 whole entry): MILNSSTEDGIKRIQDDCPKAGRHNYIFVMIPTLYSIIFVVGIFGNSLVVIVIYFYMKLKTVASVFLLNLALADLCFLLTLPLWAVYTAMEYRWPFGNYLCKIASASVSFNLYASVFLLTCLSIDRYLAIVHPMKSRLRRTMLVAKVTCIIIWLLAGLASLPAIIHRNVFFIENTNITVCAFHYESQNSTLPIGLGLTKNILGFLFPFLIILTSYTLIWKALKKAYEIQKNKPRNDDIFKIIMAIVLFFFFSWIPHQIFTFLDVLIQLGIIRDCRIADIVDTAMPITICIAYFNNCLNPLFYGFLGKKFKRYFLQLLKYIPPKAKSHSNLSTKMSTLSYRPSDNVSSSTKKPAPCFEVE

[6] = target: T3, Type-2 angiotensin II receptor; experiment: […] inhibitory concentration against AT2 receptor of rat adrenal membrane
[7] = target: Angiotensin II receptor (Rattus norvegicus) (UniProt P29089+P25095+P35351); experiment: Ratio of inhibitory concentration against AT2 receptor and AT1 receptor of rat adrenal membrane
[8] = tested on: Rattus norvegicus; experiment: In vivo inhibition of angiotensin II induced pressor response in rats at a dose of 1.0 mg/Kg after 6 hr administered intravenously; type: functional; conditions: iv
[9] = target: Angiotensin II receptor (Homo sapiens) (UniProt P30556+P50052); experiment: Ratio of inhibitory concentration against AT2 receptor and AT1 receptor of human adrenal membrane
[10] = tested on: Canis familiaris; experiment: In vivo inhibition of angiotensin II induced pressor response in dogs at a dose of 1.0 mg/Kg administered intravenously; type: functional; conditions: Canis lupus familiaris, iv
[11] = tested on: Rattus norvegicus; experiment: In vivo inhibition of angiotensin II induced pressor response in rats at a dose of 1.0 mg/Kg administered intravenously; type: functional; conditions: iv
[12] = target: T5, Type-1 angiotensin II receptor (Oryctolagus cuniculus, UniProt P34976); experiment: […] inhibitory concentration against Angiotensin II receptor, type 1 of rabbit aorta membrane
T5 sequence (P34976 whole entry): T4 sequence (P30556 whole entry) with I2M, V49A, I254V, I270V, R272H, R311K, T349S, A353V

[13] = species: Oryctolagus cuniculus; experiment: Ratio of inhibitory concentration against AT2 receptor of rat midbrain to AT1 receptor of rabbit aorta

Compound	IC50 [1]	IC50 [2]	inhibition in vivo at 1 mg/kg [3]	IC50 [4]	IC50 [5]	IC50 [6]	Ratio [7]	inhibition in vivo at 1 mg/kg [8]	Ratio [9]	inhibition in vivo at 1 mg/kg [10]	inhibition in vivo at 1 mg/kg [11]	IC50 [12]	Ratio [13]
CCc1nc2ccc(NC(=O)N(C)C(C)C)cc2c(=O)n1Cc1ccc(-c2ccccc2S(=O)(=O)NC(=O)OCCC2CC2)cc1F	0.5 nM	6.2 nM	48%	0.39 nM	8.1 nM	0.77 nM	1.83	62%	0.87	89%	91%	0.57 nM	1.2
CCCCOC(=O)NS(=O)(=O)c1ccccc1-c1ccc(Cn2c(CCCC)nc3ccc(NC(=O)N(C)C(C)C)cc3c2=O)c(F)c1	0.25 nM	7.7 nM		0.44 nM	0.89 nM	0.77 nM	3.2		8.7			0.19 nM	2.7
CCCCc1nc2ccc(NC(=O)N(C)C(C)C)cc2c(=O)n1Cc1ccc(-c2ccccc2S(=O)(=O)NC(=O)OCCC2CC2)cc1F	0.23 nM	7.8 nM		0.29 nM	1.2 nM	0.36 nM	1.5		7.6			0.13 nM	2.5
CCc1nc2ccc(NC(=O)NC(C)C)cc2c(=O)n1Cc1ccc(-c2ccccc2S(=O)(=O)NC(=O)OCCC2CC2)cc1F	0.64 nM	6.5 nM		0.56 nM	7.2 nM	0.8 nM	0.92		0.9			0.92 nM	0.61
